Experimental data reported in PMC11996864, “A small-molecule inhibitor of BCL10-MALT1 interaction abrogates progression of diffuse large B cell lymphoma” (The Journal of Clinical Investigation, 2025).
Several values for one entry are separate records, joined by “and”; a condition that tells them apart may be missing. Identical values can stand only once.

What was measured:
OCI-Ly1 cells = experiment: Apoptosis, annexin V/SYTOX Blue flow cytometry; assay type: cell-based, human
Procedure: Cell proliferation, viability, and apoptosis assays. […]
Annexin V Alexa 488
(ThermoFisher Scientific, Cat# A13201) and SYTOX Blue Dead Cell (ThermoFisher Scientific, Cat# S34857) stains were used to detect apoptosis in DLBCL cells after treatment with 1 µM compounds for 8 days in TMD8 and OCI-Ly1 and for 5 days in OCI-Ly3 cells, then analyzed with flow cytometry. The percentages of cells in early and late apoptosis were combined for quantification. For CellTrace Violet, CellTiter-glo, and Annexin V apoptosis assays, cell were cultured in media with 50% of the usual serum. […]

OCI-Ly3 cells [1] = experiment: IL6 and IL10 mRNA, qRT-PCR; assay type: cell-based, human; conditions: for IL6 and IL10 mRNA levels: OCI-Ly3, 1 μM, 24 hours, result in words; for IL6 mRNA levels (normalized) / IL10 mRNA levels (normalized): Suppl Fig. 5C
Procedure: Total RNA extraction from cell lines was performed using RNeasy Plus Mini Kit (Qiagen, Cat# 74136). […]
Kit. RNA was transcribed into cDNA using High-Capacity cDNA Reverse Transcription Kit (Applied Biosystems, Cat# 4368814) according to manufacturer’s instructions. RT-PCR was performed using TaqMan Universal PCR Master Mix (Applied Biosystems, Cat# 4304437) and run on a StepOnePlus Real-Time PCR machine (Applied Biosystems). The following probes from ThermoFisher Scientific were used for qRT-PCR: IL2 TaqMan probe Hs00174114, IL6 TaqMan

OCI-Ly3 cells [2] = experiment: IL-6 and IL-10 secretion, cytokine ELISA; assay type: cell-based, human; conditions: for IL-6 and IL-10 secretion: OCI-Ly3, result in words; for IL-6 protein (normalized) / IL-10 protein (normalized): OCI-Ly3 cells, individual replicates n=3
Procedure: (§1) Cytokine ELISAs. Cytokines in cell culture supernatants were measured 20-24h after treatment with 0, 0.01, 0.03, 0.1, 0.3, 1, or 3 µM of compounds using the following ELISA kits according to the manufacturer’s instructions: Human IL-2 ELISA (BioLegend Cat# 431804), Human IL-6 ELISA (BioLegend Cat# 430504), and Human IL-10 ELISA (BioLegend Cat# 430604). […]

TMD8 cells [3] = experiment: IL-6 and IL-10 secretion, cytokine ELISA; assay type: cell-based, human; conditions: for IL-6 and IL-10 secretion: TMD8, result in words
Procedure: as §1

OCI-Ly3 cells [4] = experiment: Cell proliferation, trypan blue cell count; assay type: cell-based, human; conditions: OCI-Ly3, single 1 μM dose, 12 days, result in words
Text: Cell proliferation, viability, and apoptosis assays. Starting with ~20,000 DLBCL cells in 5% FBS
at day 0, cell number was counted using the trypan blue dye exclusion method with Vi-CELL cell

OCI-Ly3 cells [5] = experiment: cells; parameters: species or system TMD8 or OCI-Ly3; Inhibition of spontaneous IL-6 secretion from ABC-DLBCL cells, human IL-6 ELISA of supernatants; conditions: Homo sapiens, OCI-Ly3, 20 h; IL-6 secretion; read-out: IC50 (µM) IL-6 inhibition
Procedure: (§2) Cytokine ELISAs. Cytokines in cell culture supernatants were measured 20-24h after treatment with 0, 0.01, 0.03, 0.1, 0.3, 1, or 3 µM of compounds using the following ELISA kits according to the manufacturer’s instructions: Human IL-2 ELISA (BioLegend Cat# 431804), Human IL-6 ELISA (BioLegend Cat# 430504), and Human IL-10 ELISA (BioLegend Cat# 430604). TMD8 and OCI-Ly3 cells were treated with specific doses of compounds in serum-free media for 20 hours. Jurkat T cells were pretreated with specific doses of compounds for 8 hours in serum-free media, then stimulated with PMA/ionomycin for 16 hours prior to the collection of supernatants. Mouse splenocytes were isolated from spleens of C57/BL6 mice by passing spleens through a 70 micron filter followed by red blood cell lysis using ACK lysing buffer (Quality Biologics, Cat# 118-156-101). […] Supernatant was collected at 24 hours and mouse IL-2 levels were analyzed via ELISA (R&D Systems, Cat# DY402-05). IL-6 and IL-10 are NF-κB–induced cytokines that promote the proliferation and survival of malignant B cells through both autocrine and paracrine mechanisms ([44]), and are negative prognostic factors in ABC-DLBCL ([45], [46]). ABC-DLBCL cell lines spontaneously secrete substantial levels of IL-6 and IL-10, whereas GCB-DLBCL cell lines express only a negligible amount of these cytokines ([24]). […] The IC50 for inhibition of cytokine secretion by each compound in each cell line is reported in Supplemental Table 1.  Figure 4 M1i-124 and M1i-124d1 inhibit MALT1 protease and scaffolding functions, and MALT1-dependent cytokine secretion, in ABC-DLBCL cells. (A and B) Effect of 1 μM compound pretreatment on constitutive RelB cleavage (A) and IκB phosphorylation (B) within TMD8 cells. Representative Western blots are shown along with quantification (mean ± SEM; n = 2). (C) IL6 and IL10 mRNA levels in TMD8 cells treated with 1 μM M1i-124 or M1i-124d1 (mean ± SEM; n = 6). […] Statistical analyses were performed using 1-way ANOVA and Dunnett’s multiple-comparison test. **P < 0.01, ***P < 0.001, ****P < 0.0001.

TMD8 cells [6] = experiment: cells; parameters: species or system TMD8 or OCI-Ly3; Inhibition of spontaneous IL-6 secretion from ABC-DLBCL cells, human IL-6 ELISA of supernatants; conditions: Homo sapiens, TMD8, 20 h; IL-6 secretion; read-out: IC50 (µM) IL-6 inhibition
Procedure: as §2

Row | Compound | IL6 and IL10 mRNA levels (OCI-Ly3 cells [1]) | IL6 mRNA levels (normalized) (OCI-Ly3 cells [1]) | IL10 mRNA levels (normalized) (OCI-Ly3 cells [1]) | IL-6 and IL-10 secretion (OCI-Ly3 cells [2]) | IL-6 protein (normalized) (OCI-Ly3 cells [2]; dose 0.01 µM) | IL-10 protein (normalized) (OCI-Ly3 cells [2]; dose 0.01 µM) | IL-6 protein (normalized) (OCI-Ly3 cells [2]; dose 0.03 µM) | IL-10 protein (normalized) (OCI-Ly3 cells [2]; dose 0.03 µM) | IL-6 protein (normalized) (OCI-Ly3 cells [2]; dose 0.1 µM) | IL-10 protein (normalized) (OCI-Ly3 cells [2]; dose 0.1 µM) | IL-6 protein (normalized) (OCI-Ly3 cells [2]; dose 0.3 µM) | IL-10 protein (normalized) (OCI-Ly3 cells [2]; dose 0.3 µM) | IL-6 protein (normalized) (OCI-Ly3 cells [2]; dose 1 µM) | IL-10 protein (normalized) (OCI-Ly3 cells [2]; dose 1 µM) | IL-6 protein (normalized) (OCI-Ly3 cells [2]; dose 3 µM) | IL-10 protein (normalized) (OCI-Ly3 cells [2]; dose 3 µM) | IL-6 protein (normalized) (TMD8 cells [3]; TMD8, Dose (µM) 0.01) | IL-10 protein (normalized) (TMD8 cells [3]; TMD8, Dose (µM) 0.01) | IL-6 protein (normalized) (TMD8 cells [3]; TMD8, Dose (µM) 0.03) | IL-10 protein (normalized) (TMD8 cells [3]; TMD8, Dose (µM) 0.03) | other results
1 | O=S(=O)(NCc1ccc2c(c1)OCO2)c1ccc(Cc2ccc(S(=O)(=O)NCc3ccc4c(c3)OCO4)cc2)cc1 [M1i-124] | significantly decrease IL6 and IL10 mRNA levels | 0.63 and 0.57 and 0.56 and 0.54 and 0.48 and 0.61 | 0.7074 and 0.77 and 0.73 and 0.8 and 0.4913 and 0.4249 and 0.7438 | dose-dependent reduction of IL-6 and IL-10 secretion | 107.046 and 97.7137 and 87.0295 | 103.16 and 104.534 and 97.5052 | 96.5093 and 109.876 and 83.6147 | 91.281 and 93.6459 and 78.8249 | 75.4106 and 89.2481 and 95.3244 | 87.8156 and 90.4046 and 87.8267 | 61.7285 and 64.3367 and 64.4209 | 53.7308 and 68.0081 and 65.3126 | 45.5755 and 29.5412 and 43.2472 | 42.8574 and 34.5822 and 37.4365 | 32.8587 and 36.4245 and 37.9702 | 27.1129 and 25.9246 and 27.6249 | 95.9364 and 102.213 and 93.8323 | 92.0215 and 104.795 and 93.5401 | 87.0698 and 93.9663 and 88.6054 | 92.6437 and 90.5031 and 81.0478 | Annexin (% positivity) (OCI-Ly1 cells; Ly1, individual replicates): 14.6% and 13.45% and 17.85%; IC50 (TMD8 cells [3]; Homo sapiens, cell-based assays measuring functional MALT1 inhibition, span over cytokines and cell lines (TMD8, OCI-Ly3; Supplemental Table 1)): 500 to 1300 nM; IL-6 protein (normalized) (TMD8 cells [3]; TMD8, Dose (µM) 0.1): 69.9434 and 74.7992 and 78.3531; IL-10 protein (normalized) (TMD8 cells [3]; TMD8, Dose (µM) 0.1): 68.4368 and 67.4137 and 68.4567; IL-6 protein (normalized) (TMD8 cells [3]; TMD8, Dose (µM) 0.3): 69.7251 and 64.7937 and 50.8437; IL-10 protein (normalized) (TMD8 cells [3]; TMD8, Dose (µM) 0.3): 56.1427 and 56.6527 and 44.4473; IL-6 protein (normalized) (TMD8 cells [3]; TMD8, Dose (µM) 1): 36.3116 and 40.2609 and 34.3135; IL-10 protein (normalized) (TMD8 cells [3]; TMD8, Dose (µM) 1): 37.7839 and 38.0405 and 34.7537; IL-6 protein (normalized) (TMD8 cells [3]; TMD8, Dose (µM) 3): 26.8371 and 27.7392 and 25.9151; IL-10 protein (normalized) (TMD8 cells [3]; TMD8, Dose (µM) 3): 23.1611 and 23.3192 and 20.6767; IL-6 and IL-10 secretion (TMD8 cells [3]): dose-dependent reduction of IL-6 and IL-10 secretion; expansion of culture (proliferation) (OCI-Ly3 cells [4]): significant reduction in the expansion; IC50 (OCI-Ly3 cells [5]): 0.8 µM; IC50 (TMD8 cells [6]): 1.3 µM
2 | COc1ccc(CNS(=O)(=O)c2ccc(Cc3ccc(S(=O)(=O)NCc4ccc(OC)cc4)cc3)cc2)cc1 [M1i-124d1] | significantly decrease IL6 and IL10 mRNA levels | 0.61 and 0.76 and 0.58 and 0.67 and 0.68 | 0.5473 and 0.5 and 0.74 and 0.4125 and 0.4002 and 0.6402 | dose-dependent reduction of IL-6 and IL-10 secretion | 99.5607 and 97.9207 and 112.031 | 79.7769 and 92.2916 and 96.3976 | 98.1802 and 88.2708 and 79.406 | 92.2982 and 70.1649 and 75.2443 | 82.137 and 88.0559 and 90.8694 | 78.4383 and 79.1463 and 60.8949 | 78.0338 and 77.6618 and 76.9556 | 68.3626 and 76.063 and 76.9269 | 82.5608 and 76.3464 and 79.062 | 58.0215 and 44.447 and 56.2881 | 67.8445 and 70.7121 and 79.6228 | 43.78 and 51.6743 and 38.3491 | 93.5197 and 93.7514 and 94.5387 | 69.769 and 89.382 and 96.8917 | 91.3047 and 88.3022 and 85.704 | 62.2564 and 54.1514 and 73.6549 | Percent Apoptotic cells (OCI-Ly1 cells; OCI-Ly1): 9.94% and 10.39% and 9.5% and 11.36% and 12.09% and 11.72%; IL-6 protein (normalized) (TMD8 cells [3]; TMD8, Dose (µM) 0.1): 77.5452 and 70.6916 and 62.4629; IL-10 protein (normalized) (TMD8 cells [3]; TMD8, Dose (µM) 0.1): 60.4815 and 45.5606 and 38.3417; IL-6 protein (normalized) (TMD8 cells [3]; TMD8, Dose (µM) 0.3): 55.6968 and 55.4486 and 52.1775; IL-10 protein (normalized) (TMD8 cells [3]; TMD8, Dose (µM) 0.3): 40.1613 and 36.3491 and 28.9939; IL-6 protein (normalized) (TMD8 cells [3]; TMD8, Dose (µM) 1): 45.5895 and 45.5473 and 39.027; IL-10 protein (normalized) (TMD8 cells [3]; TMD8, Dose (µM) 1): 29.9544 and 27.9974 and 29.4587; IL-6 protein (normalized) (TMD8 cells [3]; TMD8, Dose (µM) 3): 41.6763 and 36.3341 and 29.5994; IL-10 protein (normalized) (TMD8 cells [3]; TMD8, Dose (µM) 3): 27.5683 and 24.6599 and 35.0793; IL-6 and IL-10 secretion (TMD8 cells [3]): dose-dependent reduction of IL-6 and IL-10 secretion; expansion of culture (proliferation) (OCI-Ly3 cells [4]): significant reduction in the expansion; IC50 (OCI-Ly3 cells [5]): > 3 µM; IC50 (TMD8 cells [6]): 0.8 µM
